Tests used:
human recombinant CTSC = human recombinant CTSC (Homo sapiens (Human), UniProt P53634); assay: CTSC inhibition assay (in vitro), fluorescent substrate GF-AFC; format: biochemical; details: 30 μmol/L GF-AFC, pH 5.0, 25° C.
Method: 1. CTSC Inhibition Assay (In Vitro)
A test specimen was evaluated by a CTSC inhibition assay using a fluorescent substrate GF-AFC (Gly-Phe-7-Amino-4-trifluoromethylcoumarin, MP Biomedical, 03AFC03325). Since the GF-AFC is converted by CTSC to aminotrifluoromethylcoumarin having a specific fluorescence wavelength and the produced amount is proportional to CTSC activity, quantitative analysis was performed by measuring a fluorescence intensity with a plate reader. CTSC inhibition assay for each compound was performed using a polystyrene-made non-adhesive surface-treated black 384 well plate under the following conditions.
A human recombinant CTSC (R&D systems, 1071-CY) was dissolved in a CTSC active cocktail (20 ng/mL of human recombinant cathepsin L (R&D systems, 952-CY, 25 mmol/L MES/NaOH (pH: 6.0), 5 mmol/L dithiothreitol (DTT)) so as to be 100 ng/mL and incubated at 18° C. for 30 minutes. The solution was diluted with a CTSC assay buffer (50 mmol/L MES/NaOH (pH: 5.0), 50 mmol/L NaCl, 0.001% Triton X-100, mmol/L DTT) so as to be 2 ng/mL in a case of performing CTSC inhibition assay.
The test specimen was dissolved in dimethylsulfoxide (DMSO) at 10 mmol/L to prepare a stock solution. In a case where a solution in which the stock solution was diluted 15-fold with DMSO was used as the maximum evaluation concentration (0.667 mmol/L), 5-fold dilution was repeated in DMSO from the solution to prepare a serially diluted solution. 248.8 μL of the CTSC assay buffer was added to 1.12 μL of the serially diluted sample prepared in the DMSO to prepare a solution of a CTSC inhibition assay compound.
The final composition of the CTSC inhibition assay mixture was 0.66 ng/mL activated CTSC, 50 mmol/L MES/NaOH (pH: 5.0), 50 mmol/L NaCl, 0.001% Triton X-100, 5 mmol/L DTT, 30 μmol/L GF-AFC, and 0.15% DMSO, and the procedure was as follows. That is, 4 μL of the compound solution and 4 μL of the 2 ng/mL activated CTSC solution were mixed with each other in a 384 well plate and incubated at 25° C. for 30 minutes. Thereafter, 4 μL of the GF-AFC solution dissolved in the CTSC assay buffer was added to the mixture so as to be 90 μmol/L. After mixing to be uniform, a fluorescence emission intensity at 505 nm in a case of being excited at 390 nm after incubating at 25° C. for 1 hour was measured with a plate reader. A 4-parameter regression analysis was performed with GraphPad Prism (manufactured by GraphPad Software) from a plot of the fluorescence intensity at 505 nm and the sample concentration, and an IC50 value was calculated.
Results of test compounds of Formula (I) are shown in Table 1 as IC50 (nM) values for which 50% inhibition concentration is calculated based on CTSC inhibition (%). In the table, Ex indicates an example number.

CTSC in U937 cells = CTSC in U937 cells (Homo sapiens (Human), UniProt P53634); assay: Intracellular CTSC inhibition assay (in vitro), LLOMe-induced cell death in U937 cells; format: cell-based; details: 3 hours culture, CellTiter-Glo
Sequence of CTSC in U937 cells (P53634 25-463): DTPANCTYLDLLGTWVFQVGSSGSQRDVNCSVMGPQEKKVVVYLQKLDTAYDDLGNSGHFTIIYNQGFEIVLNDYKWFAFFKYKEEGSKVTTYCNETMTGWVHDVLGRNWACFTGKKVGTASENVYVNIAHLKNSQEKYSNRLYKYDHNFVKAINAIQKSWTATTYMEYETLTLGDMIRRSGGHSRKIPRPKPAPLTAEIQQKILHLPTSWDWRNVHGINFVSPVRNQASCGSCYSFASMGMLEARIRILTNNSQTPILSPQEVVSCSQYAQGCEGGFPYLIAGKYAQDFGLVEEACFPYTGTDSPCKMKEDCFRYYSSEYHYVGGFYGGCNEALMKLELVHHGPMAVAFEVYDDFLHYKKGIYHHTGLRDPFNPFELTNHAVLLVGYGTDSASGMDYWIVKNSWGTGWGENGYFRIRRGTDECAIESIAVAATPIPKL
Method: 2. Intracellular CTSC Inhibition Assay (In Vitro)
A test specimen was evaluated by a degree of cell death in a case where a substrate LLOMe (L-Leucyl-L-Leucine methyl ester, hydrobromide salt, Sigma, 555045152) was added to U937 cells. The LLOMe is taken up into the cells by endocytosis and cleaved by CTSC. A product thereof induces lysosomal damage in cells and causes cell death in leukocytes and the like. Therefore, since the degree of cell death correlates with an amount of degradation of LLOMe, that is, with CTSC activity, by quantitatively analyzing the cell death, CTSC inhibitory activity of the test specimen in the cell was determined. CTSC inhibition assay was performed using a polystyrene-made white 384 well plate.
As the test specimen, a stock solution dissolved in DMSO was prepared so as to be 0.2 mmol/L, and in a case where a solution in which the stock solution was diluted 50-fold with a RPMI-1640 medium including 10% FBS was used as the maximum evaluation concentration (4000 nmol/L), a serially diluted solution was prepared by diluting the solution 3-fold with the medium. Thereafter, a 4-fold concentrated test specimen solution with the target final concentration was prepared.
U937 cells were cultured in a RPMI-1640 medium including 10% FBS, and diluted to prepare 90,000 cells/mL of cell suspension on the day of assay. 10 μL of the cell suspension was seeded per well. Next, 10 μL of the test specimen solution having a concentration 4 times the target final concentration was added thereto, and the mixture was allowed to stand for 30 minutes. Thereafter, 20 μL of a 300 μmol/L LLOMe solution dissolved in a RPMI-1640 medium including 10% FBS was added thereto, and the cells were cultured for 3 hours. After completion of the culture, 40 μL of CellTiter-Glo (registered trademark) reagent (Promega, G7570) was added to each well and mixed. After 15 minutes, 20 μL of the reaction solution in each well was transferred to a white 384 well plate, and a chemiluminescence intensity was measured with a plate reader. A 4-parameter regression analysis was performed with GraphPad Prism (manufactured by GraphPad Software) from a plot of the luminescence intensity and the sample concentration, and an IC50 value was calculated.
Results of test compounds of Formula (1) are shown in Table 2 as IC50 (nM) values for which 50% inhibition concentration is calculated based on CTSC inhibition (%). In the table, Ex indicates an example number.

Sequence of human recombinant CTSC (P53634 25-134): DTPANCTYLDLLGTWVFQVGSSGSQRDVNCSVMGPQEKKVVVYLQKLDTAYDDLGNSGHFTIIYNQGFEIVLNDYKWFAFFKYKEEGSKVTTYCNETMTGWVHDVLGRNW
Sequence of human recombinant CTSC (P53634 231-394): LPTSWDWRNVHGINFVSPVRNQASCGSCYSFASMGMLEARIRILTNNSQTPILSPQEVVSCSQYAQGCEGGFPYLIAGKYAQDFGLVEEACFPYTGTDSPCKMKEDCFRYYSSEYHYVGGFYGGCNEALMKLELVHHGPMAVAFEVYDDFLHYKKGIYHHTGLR
Sequence of human recombinant CTSC (P53634 395-463): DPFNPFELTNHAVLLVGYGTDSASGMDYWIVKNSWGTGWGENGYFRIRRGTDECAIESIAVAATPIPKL

SMILES	IC50 (human recombinant CTSC) [nM]	IC50 (CTSC in U937 cells) [nM]
O=C([C@@H]1C[C@@H](O)C2(CCC2)CN1)N1CCC(c2noc(C3CC(F)(F)C3)n2)(c2nccs2)CC1 [Example 68]	2.92	5.44
O=C([C@@H]1C[C@@H](O)C2(CCC2)CN1)N1CCC(n2nnc(-c3ccc(F)cn3)n2)CC1 [Example 105]	2.53	3.97
O=C([C@@H]1CC[C@@]2(CCO2)CN1)N1CCC(c2nc(C3CC(F)(F)C3)no2)(C(F)(F)F)CC1 [Example 10]	39.3	162
O=C([C@@H]1C[C@@H](O)C2(CCC2)CN1)N1CCC(c2noc(C3CCC(F)(F)CC3)n2)(C2CC2)CC1 [Example 74]	0.87	0.38
CC(C)C1(c2noc(C3CCC(F)(F)CC3)n2)CCN(C(=O)[C@@H]2C[C@@H](O)C3(CCC3)CN2)CC1 [Example 82]	0.93	0.25
CC(=O)N(C)C1(c2nc(C3CC(F)(F)C3)no2)CCN(C(=O)[C@@H]2C[C@@H](O)C3(CCC3)CN2)CC1 [Example 77]	3.79	> 333
O=C([C@@H]1C[C@@H](O)C2(CCC2)CN1)N1CCC(c2nccc(-c3ccc(F)cc3)n2)CC1 [Example 101]	1.93	0.96
CC(C)C1(c2nc(C3CC(F)(F)C3)no2)CCN(C(=O)[C@@H]2C[C@@H](O)C(C)(C)CN2)CC1 [Example 54]	3.88	1.46
O=C([C@@H]1C[C@@H](O)C2(CCC2)CN1)N1CCC(c2noc(C3CCC(F)(F)CO3)n2)(C(F)(F)F)CC1 (stereo partly drawn) [Example 50, (4-(5-(5,5-difluorotetrahydro-2H-pyran-2-yl)-1,2,4-oxadiazol-3-yl)-4-(trifluoromethyl)piperidin-1-yl)((7S,9R)-9-hydroxy-6-azaspiro[3.5]nonan-7-yl)methanone]	1.53	0.8
O=C([C@@H]1C[C@@H](O)C2(CCC2)CN1)N1CCC(c2cnc(N3CCC(F)(F)CC3)s2)CC1 [Example 92]	2.76	3.62
O=C([C@@H]1C[C@@H](O)C2(CCC2)CN1)N1CCC(C(=O)N2CC[C@@H](C(F)(F)F)C2)(C(F)(F)F)CC1 [Example 52]	8.16	10.2
CC1CC[C@@H](C(=O)N2CCC(c3noc(C4CCC(F)(F)CC4)n3)(C(C)C)CC2)NC1 (stereo partly shown) [Example 43]	> 100	57.3
O=C([C@@H]1C[C@@H](O)C2(CCC2)CN1)N1CCC(c2nnn(-c3ccc(F)c(F)c3)n2)CC1 [Example 96]	1.89	0.37
O=C([C@@H]1C[C@@H](O)C2(CCC2)CN1)N1CCC(c2nc(C3CC(F)(F)C3)no2)(C(F)(F)F)CC1 [Example 2, (4-(3-(3,3-Difluorocyclobutyl)-1,2,4-oxadiazol-5-yl)-4-(trifluoromethyl)piperidin-1-yl)((7S,9R)-9-hydroxy-6-azaspiro[3.5]nonan-7-yl)methanone]	2.36	0.89
O=C([C@@H]1CC[C@@]2(CCO2)CN1)N1CCC(c2noc(C3CC(F)(F)C3)n2)(C(F)(F)F)CC1 [Example 40]	19.6	37.9
O=C([C@@H]1C[C@@H](O)C2(CCC2)CN1)N1CCC(C(=O)N2CCO[C@H](C(F)(F)F)C2)(C(F)(F)F)CC1 [Example 39]	13.3	7.18

SMILES	IC50 (human recombinant CTSC) [nM]	IC50 (CTSC in U937 cells) [nM]
CC1(C)CN[C@H](C(=O)N2CCC(c3noc(C4CC(F)(F)C4)n3)(C(F)(F)F)CC2)C[C@H]1O [Example 51, (4-(5-(3,3-Difluorocyclobutyl)-1,2,4-oxadiazol-3-yl)-4-(trifluoromethyl)piperidin-1-yl)((2S,4R)-4-hydroxy-5,5-dimethylpiperidin-2-yl)methanone]	8.28	0.86
CC(C)C1(c2nc(C3CC(F)(F)C3)no2)CN(C(=O)[C@@H]2C[C@@H](O)C3(CCC3)CN2)C1 [Example 18]	3.12	2.33
CC(C)C1(C(=O)NC2CCC(F)(F)CC2)CN(C(=O)[C@@H]2C[C@@H](O)C3(CCC3)CN2)C1 [Example 15]	1.9	791
O=C([C@@H]1CC[C@@]2(CCO2)CN1)N1CCC(c2nc(C3CCC(F)(F)CC3)no2)(C(F)(F)F)CC1 [Example 11]	7.73	11.5
O=C([C@@H]1C[C@@H](O)C2(CCC2)CN1)N1CCC(c2ccnc(N3CCC(F)(F)CC3)c2)CC1 [Example 91]	0.84	0.54
CC(C)C1(C(=O)N(C)CC2CCC(F)(F)CC2)CN(C(=O)[C@@H]2C[C@@H](O)C3(CCC3)CN2)C1 [Example 17]	1.01	21.4
O=C([C@@H]1C[C@@H](O)C2(CCC2)CN1)N1CCC(c2ccc(F)cn2)(c2noc(C3CC(F)(F)C3)n2)CC1 [Example 44]	2.74	4.24
CC(C)C1(c2noc(C3CCC(F)(F)CC3)n2)CCN(C(=O)[C@H]2N[C@H]3CC[C@@H]2[C@H](O)C3)CC1 [Example 38]	> 200	124
O=C([C@@H]1C[C@@H](O)C2(CCC2)CN1)N1CCC(c2noc(C3CCCOC3)n2)(C(F)(F)F)CC1 (stereo partly shown) [Example 60]	4.09	1.39
O=C([C@@H]1C[C@@H](O)C2(CCC2)CN1)N1CCC(c2cnn(-c3ccc(F)cc3)c2)CC1 [Example 93]	3.92	0.77
O=C([C@@H]1CC[C@@]2(CCO2)CN1)N1CCC(c2ccc(F)cc2)(c2nnc(C3CCC(F)(F)CC3)o2)CC1 [Example 87]	3.54	4.02
O=C([C@@H]1C[C@@H](O)C2(CCC2)CN1)N1CCC(c2ccsc2)(c2noc(C3CC(F)(F)C3)n2)CC1 [Example 79]	2.17	0.75
CC1(C)CN[C@H](C(=O)N2CCC(c3nnn(-c4ccc(F)c(F)c4)n3)CC2)C[C@H]1O [Example 103]	2.41	0.5
O=C([C@@H]1C[C@@H](O)C2(CCC2)CN1)N1CCC(c2nnn(C3CC(F)(F)C3)n2)(C(F)(F)F)CC1 [Example 67, (4-(2-(3,3-Difluorocyclobutyl)-2H-tetrazol-5-yl)-4-(trifluoromethyl)piperidin-1-yl)((7S,9R)-9-hydroxy-6-azaspiro[3.5]nonan-7-yl)methanone]	3.25	1.41
CC(C)C1(c2nc(C3CCC(F)(F)CC3)no2)CCN(C(=O)[C@@H]2C[C@@H](O)C3(CCC3)CN2)CC1 [Example 12]	1.03	0.34
CC(C)C1(c2noc(C3CCC(F)(F)CC3)n2)CCN(C(=O)[C@@H]2C[C@H](F)CN2)CC1 [Example 24]	151	> 1000

— US12522593B2, “Azacycloalkyl carbonyl cyclic amine compound” (Alivexis, Inc., priority 2022, dated 2026)
